Results from US12461089B2, “Olfactory receptor involved in the perception of musk fragrance and the use thereof” (ChemoSensoryX Biosciences SA, priority 2017, dated 2025).
Where two headings read alike, the source gives them in different places.

How the values were obtained:
Type in all cases: cell-based
OR5AN1 = target: T1, OR5AN1 (Homo sapiens, UniProt Q8NGI8, E89G); assay: Luciferase reporter concentration-response analysis on OR5AN1
T1 construct: expressed in transfected cells; host or cells: HEK293T-RTP1A1/RTP2
T1 sequence (Q8NGI8 1-311 E89G): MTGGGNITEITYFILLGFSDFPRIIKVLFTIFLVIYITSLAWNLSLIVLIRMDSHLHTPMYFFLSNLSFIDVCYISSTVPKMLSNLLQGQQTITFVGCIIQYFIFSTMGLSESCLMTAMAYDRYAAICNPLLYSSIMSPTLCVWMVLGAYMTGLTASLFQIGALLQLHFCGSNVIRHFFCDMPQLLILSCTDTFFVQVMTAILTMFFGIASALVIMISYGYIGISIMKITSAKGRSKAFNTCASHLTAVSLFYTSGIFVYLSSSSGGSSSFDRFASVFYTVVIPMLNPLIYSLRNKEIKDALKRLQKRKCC

OR2A5 = target: T2, OR2A5 (Homo sapiens, UniProt Q96R48, A202S/A255T/I126V); assay: Luciferase reporter concentration-response analysis on OR2A5; settings: CRE-luciferase
T2 construct: expressed in transfected cells; host or cells: HEK293T-RTP1A1/RTP2
T2 sequence (Q96R48 1-311 I126V/A202S/A255T): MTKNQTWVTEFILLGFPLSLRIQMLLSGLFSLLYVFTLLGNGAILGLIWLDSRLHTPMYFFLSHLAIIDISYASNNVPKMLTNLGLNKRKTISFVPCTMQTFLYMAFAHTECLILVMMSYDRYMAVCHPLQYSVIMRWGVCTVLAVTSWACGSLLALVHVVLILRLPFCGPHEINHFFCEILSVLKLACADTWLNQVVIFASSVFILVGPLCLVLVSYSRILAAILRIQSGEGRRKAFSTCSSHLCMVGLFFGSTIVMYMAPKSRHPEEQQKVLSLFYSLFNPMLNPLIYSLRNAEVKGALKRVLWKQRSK
Procedure: HEK293T-RTP1A1/RTP2 cells were maintained in minimal essential medium (EMEM, Lonza) containing 10% fetal bovine serum (M10). These cells were generated by transfecting HEK293T with an expression vector containing the sequences of the chaperone proteins RTP1A1 and RTP2 and a resistance gene to puromycin, using Lipofectamine 2000. The recombinant cell population, used in these experiments, was selected by adding 10 μg/ml of puromycin into the culture medium and subsequently subcloned (WO 2014/191047 A1).
(§1) Odorant molecules were diluted at a concentration of 1 mole/liter (M) into dimethyl sulfoxide (DMSO) to generate stock solutions.
(§2) For concentration-response analysis, serial dilutions of the tested molecules were prepared from stock solutions in EMEM plated into 96-well plates.
(§3) For the initial deorphanisation screening and dose-response analysis, a Luciferase-based gene reporter assay (Promega, Leiden, The Nederlands) was used. Briefly, cells were platted on Poly-D-lysine-coated 96-well and transfected with a plasmid containing the CRE-luciferase and a plasmid containing the olfactory receptor. Sixteen hours after transfection, the culture medium was replaced by serum-free EMEM containing the tested compounds at a determined concentration. After four hours of incubation at 37° C. degree, cells were lysed and processed for luminescence measurement. Luminescene emission was recorded. Results were expressed as luciferase activity (Relative […] Unit (RLU)) or as percentage of the response induced by 10 μM of the adenylate cyclase activator Forskolin. An empty plasmid is used as negative control.
In 1998, Krautwurst and collaborators have provided a model system for the study of ligand specificity and structure-function relationships for olfactory receptors (Krautwurst et al., 1998 Cell 95, 917-26). […] Based on their publication, a chimeric OR5A2_variant 1 olfactory receptor was created containing the TM2-TM7 amino acid sequence of OR5A2_variant 1 flanked by the N-teminal and C-terminal sequence of the olfactory receptor OR2A5 (cf. SEQ ID NO: 12). This chimeric OR5A2_variant 1 receptor shared 86 percent identity with the native OR5A2_variant 1 receptor (FIG. 6A and SEQ ID NO: 10).
To test if the amino acids substitution could impact the musk sensitivity, and specificity and to validate the Krautwurst's model, luciferase assays were performed as described previously after transfection of the chimeric OR5A2_variant 1. Cells were treated with semi-logarithmic serial dilutions of musk compounds from the four structurally different groups described earlier.

OR5A2_variant 2 = target: T3, OR5A2_variant 2 (Homo sapiens, UniProt Q8NGI9, P172L); assay: Luciferase reporter concentration-response analysis on haplotype OR5A2_variant 2 (P172L); settings: CRE-luciferase; empty vector pEFIBRHO as control
T3 construct: (P172L, OR5A2_variant 2); expressed in transfected cells; host or cells: HEK293T-RTP1A1/RTP2
T3 sequence (Q8NGI9 1-324 P172L): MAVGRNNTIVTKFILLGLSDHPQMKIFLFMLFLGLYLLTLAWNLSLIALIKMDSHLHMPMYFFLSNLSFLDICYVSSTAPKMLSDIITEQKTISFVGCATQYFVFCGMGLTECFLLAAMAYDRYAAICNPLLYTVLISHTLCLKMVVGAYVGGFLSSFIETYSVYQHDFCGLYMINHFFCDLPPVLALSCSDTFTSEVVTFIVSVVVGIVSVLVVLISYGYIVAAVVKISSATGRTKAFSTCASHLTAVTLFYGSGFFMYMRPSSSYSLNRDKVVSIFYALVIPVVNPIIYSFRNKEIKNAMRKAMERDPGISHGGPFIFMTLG
Procedure: HEK293T-RTP1A1/RTP2 cells were maintained in minimal essential medium (EMEM, Lonza) containing 10% fetal bovine serum (M10). These cells were generated by transfecting HEK293T with an expression vector containing the sequences of the chaperone proteins RTP1A1 and RTP2 and a resistance gene to puromycin, using Lipofectamine 2000.
as §1, §2, §3
OR genes are highly variable, with many alleles resulting in differences in smell perception from person to person. These differences can be attributed to genetic variations like, for example, nucleotide polymorphisms. […] Amino acids alignment of the 2 haplotypes are represented in FIG. 4.
To test if the substitution could impact the musk sensitivity, luciferase assays were performed as described previously after transfection of both OR5A2 variants. Cells were treated with semi-logarithmic serial dilutions of musk compounds from the four structurally different groups described earlier. In each experiment, an empty vector was used as negative control (pEFIBRHO).

[1] = concentration-response analysis, luciferase reporter, values given as negative (log) numbers, Non Active = no activation after testing, read-out: calculated EC50, OR5AN1 (converted)

Structure (SMILES)	EC50 (OR5AN1; [1]) [nM]	activation of OR2A5, concentration-response (OR2A5)	activation of OR5A2_variant 2 (P172L), concentration-response (OR5A2_variant 2)	EC50 (OR5AN1) [nM]
CC(=O)c1c(C)c([N+](=O)[O-])c(C(C)(C)C)c([N+](=O)[O-])c1C [Musk Ketone, 4-tert-butyl-2,6-dimethyl-3,5-dinitroacetophenone]	288	but not the OR2A5	not activated	
Cc1c([N+](=O)[O-])c(C)c([N+](=O)[O-])c(C(C)(C)C)c1[N+](=O)[O-] [Musk Xylene, 1-tert-butyl-3,5-dimethyl-2,4,6-trinitrobenzene]		but not the OR2A5	not activated	661
O=C1CCC/C=C\CCCCCCCCCC1 [Velvione]	49000	but not the OR2A5	not activated	
